According to patent US12661364B2, “Remedy for hair growth enhancing” (GURUS BIOPHARM INC., priority 2019, dated 2026):
Each block holds one compound with its values, some of them ahead of it.

Experiments:
[1] = Stability of the cosmetic composition during accelerated storage at room temperature (HPLC content of the combination's components); type: physicochemical; conditions: for Stability / content in the cosmetic composition during accelerated storage (in words): room temperature, 20 degrees above the recommended +4 to +8° C.; for Prostaglandin F2 content, % (as % to the initial one): +25-27° C., measurement error 5%
Description: The cosmetic composition for stimulation of hair growth (example of composition 1 according to the invention, see above) was held at +25-27° C. for 2 months. Samples were taken every week and analyzed for the content of the components of the combination by HPLC. To prepare a sample for analysis, 1 g of gel was taken from the cosmetic composition into a round-bottom glass centrifuge tube and 2 g of distilled ethyl acetate were added. The mixture was shaken on a Multi-Vortex V32 until the liquids were completely mixed for 3 min. The resulting suspension was centrifuged for 5 min at 6000 rpm for complete separation of the layers. The upper layer (ethyl acetate layer) was carefully removed with a glass pipette and transferred to a conical-bottom flask (V25 mL). Another 2 g of distilled ethyl acetate were added to the solution remaining in the test tube, and the extraction procedure was repeated once again. The upper layer (ethyl acetate layer) was carefully removed with a glass pipette and added to the previously collected solution. The organic layer was evaporated on a rotary evaporator and dried in an oil pump vacuum. The residue was dissolved in ethanol to obtain a solution with an ethanol concentration of 26 mg/100 μL. The extract was analyzed by microcolumn reversed-phase HPLC in an acetonitrile-water gradient system (linear gradient, 5→100% acetonitrile). The components of the combination of the invention were identified by comparison with reference standards. The quantity of each component was estimated by the signal area in the chromatogram.

[2] = tested on: scalp hair growth; conditions: 0.1% latanoprost applied to the scalp, after 24 weeks; cited from earlier work

Structure (SMILES): CCCCC[C@H](O)/C=C/[C@H]1[C@H](O)CC(=O)[C@@H]1CCCCCCC(=O)OC(CO[N+](=O)[O-])CO[N+](=O)[O-] [E1, (Z)-1,3-bis(nitroxy)propan-2-yl-7-((1R,2R,3R)-3-hydroxy-2-((S,E)-3-hydroxyoct-1-en-1-yl)-5-xocyclopentyl)heptanoate]
Stability / content in the cosmetic composition during accelerated storage (in words) [1]: decreases over time

Structure (SMILES): CCCCC[C@H](O)/C=C/[C@H]1[C@H](O)CC(=O)[C@@H]1C/C=C\CCCC(=O)OC(CO[N+](=O)[O-])CO[N+](=O)[O-] [(Z)-1,3-bis(nitroxy)propanyl-2-7-((1R,2R,3R)-3-hydroxy-2-((S,E)-3-hydroxyoctene-1-yl-1)-5-oxocyclopentenyl)-5-heptenoate]
Stability / content in the cosmetic composition during accelerated storage (in words) [1]: decreases over time

Prostaglandin F2 content, % (as % to the initial one) ([1]; hold time 0 weeks, cosmetic composition for stimulation of hair growth): 100%
Prostaglandin F2 content, % (as % to the initial one) ([1]; hold time 1 week): 100%
Prostaglandin F2 content, % (as % to the initial one) ([1]; hold time 2 weeks): 100%
Prostaglandin F2 content, % (as % to the initial one) ([1]; hold time 3 weeks): 99%
Prostaglandin F2 content, % (as % to the initial one) ([1]; hold time 4 weeks): 99%
Prostaglandin F2 content, % (as % to the initial one) ([1]; hold time 5 weeks): 98%
Prostaglandin F2 content, % (as % to the initial one) ([1]; hold time 6 weeks): 98%
Stability / content in the cosmetic composition during accelerated storage (in words) [1]: decreases very slowly
Structure (SMILES): CCCCC[C@H](O)/C=C/[C@@H]1[C@@H](C/C=C\CCCC(=O)N[C@H](CO)C(=O)OC(C)C)[C@@H](O)C[C@H]1O [modified prostaglandin F2]

Structure (SMILES): CC(C)OC(=O)CCC/C=C\C[C@@H]1[C@@H](CC[C@@H](O)CCc2ccccc2)[C@H](O)C[C@@H]1O [latanoprost]
Hair density (terminal and vellus hair) [2]: significant increase in hair density
